Data reported in US11072628B2, “Nucleoside analogues for the treatment of parasitic infections” (UNIVERSITEIT GENT, priority 2017, dated 2021).
Read-outs that look alike come from different tables or passages of the source.

Key:
T. brucei Squib 427 = experiment: In vitro drug susceptibility, T. brucei Squib 427 (resazurin); type: cell-based, Trypanosoma brucei brucei; settings: Trypanosoma brucei
Protocol: (§1) All trypanosome strains were cultured in the standard HMI-9 medium supplemented with 10% fetal bovine serum (FBS) at 37° C. in a 5% CO2 atmosphere.

[1] = system: T. b. rhodesiense STIB-900; experiment: In vitro drug susceptibility, T. b. rhodesiense STIB-900 (resazurin); type: cell-based, Trypanosoma brucei rhodesiense; settings: Trypanosoma brucei, RHODESIENSE
Protocol: as §1

[2] = Cytotoxicity against MRC-5 fibroblasts; settings: human, MRC-5 fibroblasts, cytotoxicity
Protocol: Cytotoxicity was assayed against MRC-5 fibroblasts. Results are depicted in Tables 4 and 5.

[3] = system: T. cruzi Tulahuen CL2 β galactosidase strain; experiment: T. cruzi Tulahuen CL2 β galactosidase strain on MRC-5SV2 cells (CPRG); type: cell-based, Trypanosoma cruzi; settings: Trypanosoma cruzi, TULAHUEN, MRC-5 SV2
Protocol: All cultures and assays were conducted at 37° C./5% CO2. […] The results were expressed as % reduction in parasite burdens compared to control wells from which an EC50 was calculated.

[4] = system: T. vaginalis trophozoites (metronidazole susceptible G3 strain); experiment: Trichomonas vaginalis in vitro assay; type: cell-based; settings: Trichomonas vaginalis, average of 2-5 independent replicates
Protocol: T. vaginalis trophozoites (metronidazole susceptible G3 strain) were grown in vitro in modified Diamond's media (MDM) with 10% heat inactivated horse serum (HIHS) acquired from Gibco Life Technologies. After medium preparation, the pH was adjusted to 6.3-6.4 employing 1.0 M aq. HCl. Parasites cultures were passaged every day by taking 1 mL of cell culture into a 25 mL bottle of fresh media to ensure the cells were kept at the appropriate concentration of ˜2×10^6 cells/mL. The culture flasks were filled completely and tightly capped to provide the cells with an anaerobic environment. The parasites were maintained in incubation at 37° C. When culturing in multiwell plates, the plates were sealed with Nescofilm® and inserted in BD GasPak EZ pouches (BD Diagnostics, UK) in order to create anaerobic conditions. Assays were performed with 5×10^4 trophozoites/well (100 μL) to which compound dilutions were added (100 μL). Outside wells of columns and rows were filled with 200 μL of sterile water. Plates were sealed with Nescofilm® and incubated under anaerobic conditions as described above. After 24 h, 30 μL of assay dye solution (resorufin) was added, and incubated for 1-2 h before being read using Fluostar Optima (BMG Labtech, UK) at an excitation wavelength of 544 nm and an emission wavelength of 620 nm.

[5] = read-out: T. brucei brucei EC50, Table 1, average of 2-4 independent determinations
[6] = Table 2, average of 2-3 independent replicates
[7] = read-out: T.b. brucei EC50, Table 4, average of 2-6 independent determinations
[8] = Table 5, average of 2-4 independent replicates

Row | SMILES | EC50 (T. brucei Squib 427; [5]) [µM] | EC50 ([1]; read-out: T. brucei rhod. EC50) [nM] | EC50 ([2]; MRC-5 EC50, Table 1) [µM] | EC50 ([2]; MRC-5 EC50, Table 2) [µM] | EC50 [3, 6] [nM] | melting point | EC50 ([4]; Table 3) [nM] | EC50 (T. brucei Squib 427; read-out: EC50 against T. brucei) [µM] | EC50 (T. brucei Squib 427; [7]) [µM] | EC50 ([1]; read-out: T.b. rhod. EC50) [nM] | EC50 ([2]; MRC-5 EC50, Table 4) [µM] | EC50 ([2]; MRC-5 EC50, Table 5) [µM] | EC50 [3, 8] [nM] | EC50 ([4]; Table 6) [nM]
1 | Nc1ncnc2c1c(-c1ccc([N+](=O)[O-])cc1)cn2[C@@H]1O[C@H](CO)C[C@H]1O [FH9582, 4-amino-5-(4-nitrophenyl)-N7-(3′-deoxy-β-D-ribofuranosyl)-pyrrolo[2,3-d]pyrimidine] | 2.1 | 320 | > 64 | > 64 | 1200 | 254 °C (dec.) |  |  |  |  |  |  |  | 
2 | Nc1ncnc2c1c(CCc1ccccc1)cn2[C@@H]1O[C@H](CO)C[C@H]1O [FH10661, 4-amino-5-(phenylethyl)-N7-(3′-deoxy-β-D-ribfuranosyl)-pyrrolo[2,3-d]pyrimidine] | 8.26 | 670 | > 64 | > 64 | > 64000 | 76 °C |  |  |  |  |  |  |  | 
3 | Cc1ncc([N+](=O)[O-])n1CCO [Metronidazole, reference compound] |  |  |  |  |  |  | 530 |  |  |  |  |  |  | 
4 | CCCCC#Cc1cn([C@@H]2O[C@H](CO)C[C@H]2O)c2ncnc(N)c12 [FH9611, 4-amino-5-hex-1-yn-N7-(3′-deoxy-β-D-ribfuranosyl)-pyrrolo[2,3-d]pyrimidine] | 0.32 | 60 | > 64 | > 64 | 9700 | 161 to 163 °C |  |  |  |  |  |  |  | 
5 | CCc1ccc(-c2cn([C@@H]3O[C@H](CO)C[C@H]3O)c3ncnc(N)c23)cc1 [FH10647] | 7.58 | 1500 | 18.4 | 18.4 | 1040 | 114 °C |  |  |  |  |  |  |  | 
6 | Nc1ncnc2c1c(-c1ccc(C(F)(F)F)cc1)cn2[C@@H]1O[C@H](CO)C[C@H]1O [FH9576, 4-amino-5-(4-trifluoromethylphenyl)-N7-(3′-deoxy-β-D-ribofuranosyl)-pyrrolo[2,3-d]pyrimidine] | 19.5 | 6600 | 40 | 40 | 530 |  | 260 |  |  |  |  |  |  | 
7 | OC[C@@H]1C[C@@H](O)[C@H](n2cc(Br)c3cncnc32)O1 [FH9539, 5-bromo-N7-(3′-deoxy-β-D-ribofuranosyl)-pyrrolo[2,3-d]pyrimidine] | 0.51 | 910 | 21 | 21 | 36800 | 186 °C |  |  |  |  |  |  |  | 
8 | Nc1ncnc2c1c(-c1cc(Cl)cc(Cl)c1)cn2[C@@H]1O[C@H](CO)C[C@H]1O [FH10642, 4-amino-5-(3,5-dichlorophenyl)-N7-(3′-deoxy-β-D-ribofuranosyl)-pyrrolo[2,3-d]pyrimidine] | 7.7 | 5450 | 30.2 | 30.2 | 550 | 211 °C |  |  |  |  |  |  |  | 
9 | C#Cc1cn([C@@H]2O[C@H](CO)C[C@H]2O)c2ncnc(N)c12 [FH8505, 4-amino-5-ethynyl-N7-(3′-deoxy-β-D-ribofuranosyl)-pyrrolo[2,3-d]pyrimidine] | 0.005 | 0.5 |  |  | 1660 | 192 °C |  |  |  |  |  |  |  | 
10 | Nc1ncnc2c1c(/C=C/c1ccccc1)cn2[C@@H]1O[C@H](CO)C[C@H]1O [FH10660, 4-amino-5-(E-styryl)-N7-(3′-deoxy-β-D-ribfuranosyl)-pyrrolo[2,3-d]pyrimidine] | 1.76 | 170 | 49.4 | 49.4 | 6280 | 170 °C |  |  |  |  |  |  |  | 
11 | Nc1ncnc2c1c(-c1ccc(Cl)c(Cl)c1)cn2[C@@H]1O[C@H](CO)C[C@H]1O [FH8513] | 1.8 | 1500 | 13.6 | 13.6 | 60 |  | 330 |  |  |  |  |  |  | 
12 | Nc1ncnc2c1c(-c1cc(Cl)cc(Cl)c1)cn2[C@@H]1O[C@H](CO)[C@@H](O)[C@H]1O [FH8460, 4-amino-5-(3,5-dichlorophenyl)-N7-(β-D-ribofuranosyl)-pyrrolo[2,3-d]pyrimidine] |  |  |  |  |  | 219 °C |  | < 10 | 8.17 | 3660 | > 64 | > 64 | 1720 | 
13 | Nc1ncnc2c1c(C(F)(F)F)cn2[C@@H]1O[C@H](CO)C[C@H]1O [FH9526, 4-amino-5-trifluoromethyl-N7-(3′-deoxy-β-D-ribofuranosyl)-pyrrolo[2,3-d]pyrimidine] | 0.94 | 1880 | 0.66 | 0.66 | 2330 | 167 °C |  |  |  |  |  |  |  | 
14 | Nc1ncnc2c1c(-c1cccc(Cl)c1)cn2[C@@H]1O[C@H](CO)C[C@H]1O [FH10641, 4-amino-5-(3-chlorophenyl)-N7-(3′-deoxy-β-D-ribofuranosyl)-pyrrolo[2,3-d]pyrimidine] | 7.13 | 550 | 36.1 | 36.1 | 970 | 130 °C |  |  |  |  |  |  |  | 
15 | CCc1cn([C@@H]2O[C@H](CO)C[C@H]2O)c2ncnc(N)c12 [FH9613, 4-amino-5-ethyl-N7-(3′-deoxy-β-D-ribofuranosyl)-pyrrolo[2,3-d]pyrimidine] | 1.78 | 650 | > 64 | > 64 | 19700 | 200 °C |  |  |  |  |  |  |  | 
16 | Cc1ccc(-c2cn([C@@H]3O[C@H](CO)C[C@H]3O)c3ncnc(N)c23)cc1Cl [FH10644, 4-amino-5-(3-chloro-4-methylphenyl)-N7-(3′-deoxy-β-D-ribofuranosyl)-pyrrolo[2,3-d]pyrimidine] | 4.74 | 5990 | 17.9 | 17.9 | 270 | 135 °C |  |  |  |  |  |  |  | 
17 | Nc1ncnc2c1c(-c1ccccc1)cn2[C@@H]1O[C@H](CO)[C@@H](O)[C@H]1O [TH1004, 4-amino-5-phenyl-N7-(β-D-ribofuranosyl)-pyrrolo[2,3-d]pyrimidine] |  |  |  |  |  |  |  |  | 32.3 | 4100 | 56.2 | 56.2 | 3440 | 430
18 | Cc1cc(-c2cn([C@@H]3O[C@H](CO)C[C@H]3O)c3ncnc(N)c23)ccc1Cl [FH10648, 4-amino-5-(3-methyl-4-chlorophenyl)-N7-(3′-deoxy-β-D-ribofuranosyl)-pyrrolo[2,3-d]pyrimidine] | 6.4 | 2090 | 16.7 | 16.7 | 210 | 125 °C |  |  |  |  |  |  |  | 
19 | CCCC#Cc1cn([C@@H]2O[C@H](CO)C[C@H]2O)c2ncnc(N)c12 [FH9610, 4-amino-5-pent-1-yn-N7-(3′-deoxy-β-D-ribfuranosyl)-pyrrolo[2,3-d]pyrimidine] | 0.32 | 40 | > 64 | > 64 | 4100 | 127 to 129 °C |  |  |  |  |  |  |  | 
20 | Nc1ncnc2c1c(-c1ccc(Cl)cn1)cn2[C@@H]1O[C@H](CO)[C@@H](O)[C@H]1O [MS1039, 4-amino-5-(5-chloro-pyrid-2-yl)-N7-(β-D-ribofuranosyl)-pyrrolo[2,3-d]pyrimidine] |  |  |  |  |  |  |  |  | 8.97 | 4600 | > 64 | > 64 | 2390 | 860
21 | Nc1ncnc2c1c(C#Cc1ccccc1)cn2[C@@H]1O[C@H](CO)C[C@H]1O [FH8504, 4-amino-5-phenylethynyl-N7-(3′-deoxy-β-D-ribofuranosyl)-pyrrolo[2,3-d]pyrimidine] | 0.3 | 120 | 9.6 | 9.6 | 3700 | 120 °C |  |  |  |  |  |  |  | 
22 | COc1cc(-c2cn([C@@H]3O[C@H](CO)C[C@H]3O)c3ncnc(N)c23)ccc1Cl [FH10649, 4-amino-5-(3-methoxy-4-chlorophenyl)-N7-(3′-deoxy-β-D-ribofuranosyl)-pyrrolo[2,3-d]pyrimidine] | 2.01 | 540 | 17.2 | 17.2 | 60 | 208 °C |  |  |  |  |  |  |  | 
23 | Nc1ncnc2c1c(Br)cn2[C@@H]1O[C@H](CSCCO)C[C@H]1O [FH9591, 4-amino-5-bromo-N7-(3′-deoxy-5′-thio-ethan-2-ol-β-D-ribofuranosyl)-pyrrolo[2,3-d]pyrimidine] | 5.05 | 710 | 26.5 | 26.5 | 33800 | 164 °C |  |  |  |  |  |  |  | 
